This note sets out measurements from patent US9963462B2 (priority 2015, dated 2018).

Broadly, the IC50 is the concentration that inhibits the measured activity by half.

Test [1] deals with SNAP-hSPR (sepiapterin reductase, SPR) (Homo sapiens, UniProt P35270). Briefly: biochemical. The format is binding. Particulars: terbium labelled SNAP-hSPR / SSZ labelled SNAP-EGFP; read-out: hTR-FRET IC50.
In test [2] the test system is BH4 levels in SK-N-BE (2) cells. The test is described as follows: SKN-N-BE (2) cellular assay, BH4 levels by LC-MS. The format is cell-based.
Method: SKN-N-BE(2) Cellular Assay: SK-N-BE (2) cells were seeded in sterile, 96-well plates and incubated for 12-24 hours at 37° C. with 5% CO2 supply. Media was removed and fresh DMEM/F-12 media (containing Glutamine & Pen/Strep but no FBS) was added. Compounds (at different concentrations) were added to different wells. The plates were then incubated for 6-48 hours at 37° C. with 5% CO2 supply. Plates were then centrifuged and the supernatant was removed. The plates were then optionally washed once with PBS. They were then sealed and stored at −80° C. or immediately used. The cells were lysed and the level of BH4 was assessed by LC-MS.
Compounds were assayed for SPR inhibitory activity using a SKN-N-BE (2) cellular assay according to the following procedure. SK-N-BE (2) cells were seeded in sterile, 96-well plates and incubated for 12-24 hours at 37° C. with 5% CO2 supply. Media was removed and fresh DMEM/F-12 media (containing Glutamine & Pen/Strep but no FBS) was added. Compounds (at different concentrations) were added to different wells. The plates were then incubated for 6-48 hours at 37° C. with 5% CO2 supply. Plates were then centrifuged and the supernatant was removed. The plates were then optionally washed once with PBS. They were then sealed and stored at −80° C. or immediately used in the next step. The cells were lysed and the levels of BH4 were assessed by LC-MS.
[3] abbreviates: Homo sapiens, SKNBE2, read-out: SK-N-BE(2) IC50, SK-N-BE (2) cells, BH4 levels by LC-MS.

Structures are written as SMILES. Read-outs that look alike come from different tables or passages of the source.

Sequence of SNAP-hSPR (sepiapterin reductase, SPR) (P35270 whole entry): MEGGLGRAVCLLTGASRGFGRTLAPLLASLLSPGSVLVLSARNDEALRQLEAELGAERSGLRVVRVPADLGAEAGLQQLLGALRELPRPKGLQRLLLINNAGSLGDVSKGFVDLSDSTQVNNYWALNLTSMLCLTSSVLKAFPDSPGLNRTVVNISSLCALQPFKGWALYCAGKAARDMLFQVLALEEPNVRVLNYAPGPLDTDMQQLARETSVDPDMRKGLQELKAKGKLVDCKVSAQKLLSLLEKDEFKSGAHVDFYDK

Take `Cc1c(C(=O)N2CCC(C(F)(F)F)CC2)cnn1-c1nc2scnc2c(=O)[nH]1` [Q-0441]: the IC50 in test [1] worked out at 100 nM; in test [2] (setting [3]) it was 31000 nM.
For `Cc1c(C(=O)N2CCNCC2)cnn1-c1nc2c(c(=O)[nH]1)CCC2` [Q-0714], in that order: 30 nM and 8100 nM.
`Cc1c(C(=O)N2CCC(C(F)(F)F)CC2)ccn1-c1nc2c(c(=O)[nH]1)CCC2` [Q-0622, 2-(2-methyl-3-(4-(trifluoromethyl)piperidine-1-carbonyl)-1H-pyrrol-1-yl)-6,7-dihydro-3H-cyclopenta[d]pyrimidin-4(5H)-one]: the 50% inhibitory concentration (IC50) in test [1] was found to be 1 nM; in test [2] (setting [3]), 58 nM.
Turning to `Cc1c(C(=O)N2C[C@@H]3[C@H](C2)[C@@H]3C(N)=O)cnn1-c1nc2c(c(=O)[nH]1)CCC2` [Q-0610], the IC50 in test [1] was 10 nM; in test [2] (setting [3]) it was 10000 nM.
For `CCN(CC)C(=O)c1cnn(-c2nc(C)cc(=O)[nH]2)c1C` [Q-0348] the same measures were 10 nM and 6400 nM.
For `Cc1c(C(=O)N2CC(CNC(=O)OC(C)(C)C)C2)cnn1-c1nc2ccsc2c(=O)[nH]1` [Q-0582] the same measures were 20 nM and 1000 nM.
For `Cc1cc(=O)[nH]c(-n2ncc(C(=O)NC3CCCC3)c2C(C)C)n1` [Q-0330], in that order: 20 nM and 6100 nM.
Consider `O=C(c1cnn(-c2nc3ccsc3c(=O)[nH]2)c1)N1CCC(S(=O)(=O)c2ccccc2)CC1` [Q-0524], for which the half-inhibitory concentration (IC50) in test [1] was found to be 4 nM; in test [2] (setting [3]), 1100 nM.
As to `Cc1c(C(=O)N2CCC(C(F)(F)F)CC2)cnn1-c1nc2c(ccn2C)c(=O)[nH]1` [Q-0426], the IC50 in test [1] amounted to 100 nM; in test [2] (setting [3]), 16000 nM.
For `N#CC1(c2ccccc2)CCN(C(=O)c2cnn(-c3nc4c(c(=O)[nH]3)CCC4)c2)CC1` [Q-0726], in that order: 1 nM and 74 nM.
For `Cc1c(C(=O)N2CCn3cnnc3C2)cnn1-c1nn2cccc2c(=O)[nH]1` [Q-0853], in that order: 30 nM and 10000 nM.
For `Cc1cc(=O)[nH]c(-n2ncc(C(=O)N3CCc4ccccc4[C@@H]3C)c2C)n1` (single isomer, unassigned) [Q-0339] the same measures were 9 nM and 1500 nM.
`O=C(c1cccc(-c2nc3c(c(=O)[nH]2)CCC3)c1)N1CCC(C(F)(F)F)CC1` [Q-0593, 2-(3-(4-(trifluoromethyl)piperidine-1-carbonyl)phenyl)-6,7-dihydro-3H-cyclopenta[d]pyrimidin-4(5H)-one]: the results for the 50% inhibitory concentration (IC50) in test [1] and in test [2] (setting [3]) were 200 nM and 7400 nM, respectively.
For `Cc1c(C(=O)N2CCC(c3nc4cc(F)ccc4s3)CC2)cnn1-c1nc2ccsc2c(=O)[nH]1` [Q-0603] the same measures were 6 nM and 100 nM.
For `Cc1c(C(=O)N2CCC(C(C)(C)C#N)CC2)cnn1-c1nn2cccc2c(=O)[nH]1` [Q-0600] the same measures were 1 nM and 57 nM.
For `Cc1c(C(=O)N2CCC3(CCCCN3C(=O)OC(C)(C)C)C2)cnn1-c1nc2ccsc2c(=O)[nH]1` (stereo not drawn) [Q-0579] the same measures were 5 nM and 100 nM.
For `CCC1(C#N)CCN(C(=O)c2cnn(-c3nn4c(F)ccc4c(=O)[nH]3)c2C)CC1` [Q-0623], the results for the IC50 in test [1] and in test [2] (setting [3]) were 1 nM and 78 nM, respectively.
For the compound `Cc1cc(=O)[nH]c(-n2ncc(C(=O)N3CCc4ccccc4C3)c2C(F)(F)F)n1` [Q-0342], the concentration for half-maximal inhibition (IC50) came out at 10 nM in test [1] and 2400 nM in test [2] (setting [3]).
Consider `Cc1c(C(=O)N2CCC(c3c[nH]c4ccccc34)CC2)cnn1-c1nc2ccsc2c(=O)[nH]1` [Q-0560], for which the IC50 in test [1] was 3 nM; in test [2] (setting [3]), 12 nM.
For `O=C(O)c1ccnc(-c2nc3ccsc3c(=O)[nH]2)c1` [Q-0547], the half-inhibitory concentration (IC50) in test [1] was 2300 nM; in test [2] (setting [3]), 10000 nM.
`CC1CCN(C(=O)c2cnn(-c3nn4cccc4c(=O)[nH]3)c2C2CC2)CC1` [Q-0757]: the IC50 in test [1] was found to be 2 nM; in test [2] (setting [3]) it was 200 nM.
For `Cc1c(C(=O)N2Cc3ccccc3C[C@H]2C(=O)NC(C)(C)C)cnn1-c1nc2c(c(=O)[nH]1)CCC2` [Q-0489], in that order: 8 nM and 53 nM.
For the compound `Cc1cc(-n2cc(C(=O)N3CCC(C(F)(F)F)CC3)cn2)[nH]c(=O)c1` [Q-0460, 4-methyl-6-{4-[4-(trifluoromethyl)piperidine-1-carbonyl]-1H-pyrazol-1-yl}-1,2-dihydropyridin-2-one], the 50% inhibitory concentration (IC50) is 3 nM in test [1] and 600 nM in test [2] (setting [3]).
For `Cc1c(C(=O)N2CCN(C(=O)OCc3ccccc3)C(C)C2)cnn1-c1nc2c(c(=O)[nH]1)CCC2` (stereo not drawn) [Q-0507] the same measures were 10 nM and 200 nM.
On to `Cc1c(C(=O)N2CCC(C(F)(F)F)CC2)nnn1-c1nn2cccc2c(=O)[nH]1` [Q-0832], for which the figures for the concentration for half-maximal inhibition (IC50) in test [1] and in test [2] (setting [3]) were 1 nM and 200 nM, respectively.
Take `Cc1c(C(=O)N2CCC(C3CC3)CC2)cnn1-c1nc2sccc2c(=O)[nH]1` [Q-0700]: the concentration for half-maximal inhibition (IC50) in test [1] turned out to be 2 nM; in test [2] (setting [3]), 100 nM.
For `O=C(c1cnn(-c2nn3cc(F)cc3c(=O)[nH]2)c1)N1CCC(CC(F)(F)F)CC1` [Q-0741], in that order: 4 nM and 400 nM.
For `Cc1c(C(=O)N2CCC(c3nc4cc(F)ccc4s3)CC2)cnn1-c1nn2cccc2c(=O)[nH]1` [Q-0604], in that order: 7 nM and 72 nM.
As for `O=C(c1ccnc(-c2nc3ccsc3c(=O)[nH]2)c1)N1CCC(c2c[nH]c3ccccc23)CC1` [Q-0555], the concentration for half-maximal inhibition (IC50) in test [1] amounted to 20 nM; in test [2] (setting [3]), 700 nM.
For `O=C(c1cnn(-c2nc3c(c(=O)[nH]2)CCC3)c1)N1CCC(C(F)(F)F)CC1` [Q-0526, 2-{4-[4-(trifluoromethyl)piperidine-1-carbonyl]-1H-pyrazol-1-yl}-3H,4H,5H,6H,7H-cyclopenta[d]pyrimidin-4-one], in that order: 3 nM and 28 nM.
With `Cc1c(C(=O)N2C3CCC2CN(c2ccc(C(F)(F)F)cn2)C3)cnn1-c1nn2cccc2c(=O)[nH]1` [Q-0854], the IC50 in test [1] was determined as 3 nM; in test [2] (setting [3]) it was 200 nM.
For `Cc1cc(=O)[nH]c(-n2ncc(C(=O)NC3CCCC3)c2Cc2ccccc2)n1` [Q-0370] the same measures were 100 nM and 22000 nM.
With `O=C(c1cnn(-c2nc3ccsc3c(=O)[nH]2)c1)N1CCC(C(F)(F)F)CC1` [Q-0517], the IC50 in test [1] was 2 nM; in test [2] (setting [3]) it was 100 nM.
Take `O=c1[nH]c(-c2cc(S(=O)(=O)N3CCC(C(F)(F)F)CC3)ccn2)nc2c1CCC2` [Q-0522]: the IC50 in test [1] was 300 nM; in test [2] (setting [3]), 10000 nM.
For `COC1CCN(C(=O)c2cnn(-c3nc4c(c(=O)[nH]3)CCC4)c2C)C1` (stereo not drawn) [Q-0478] the same measures were 6 nM and 1400 nM.
`Cc1c(C(=O)N2CCC(C(O)(C(F)(F)F)C(F)(F)F)CC2)cnn1-c1nc2c(c(=O)[nH]1)CCC2` [Q-0701]: the half-inhibitory concentration (IC50) in test [1] was found to be 2 nM; in test [2] (read-out: SK-N-BE(2) IC50, SK-N-BE (2) cells, BH4 levels by LC-MS), 82 nM.
On to `O=C(c1cnn(-c2nc3c(c(=O)[nH]2)CCC3)c1)N1CCC(c2nc3ccc(F)cc3s2)CC1` [Q-0718], for which the IC50 in test [1] came out at 4 nM; in test [2] (setting [3]) it was 200 nM.
For `Cc1cc(=O)[nH]c(-n2ccc(C(=O)NC3CCCC3)n2)n1` [Q-0333] the same measures were 20 nM and 12000 nM.
As to `Cc1c(C(=O)N2c3ccccc3C[C@H]2C)cnn1-c1nc2ccsc2c(=O)[nH]1` (single isomer, unassigned) [Q-0414], the IC50 in test [1] amounted to 6 nM; in test [2] (setting [3]), 300 nM.
In the case of `Cc1cc(=O)[nH]c(-n2ncc(C(=O)N3CCCC(C(F)(F)F)C3)c2C)n1` (stereo not drawn) [Q-0368], the IC50 amounted to 10 nM in test [1] and 2900 nM in test [2] (setting [3]).
With `Cc1c(C(=O)N(CC2COc3ccccc3O2)C(C)C)cnn1-c1nc2c(c(=O)[nH]1)CCC2` (stereo not drawn) [Q-0500], the results for the 50% inhibitory concentration (IC50) in test [1] and in test [2] (setting [3]) were 30 nM and 97 nM, respectively.
For `CC1(C)CCN(C(=O)c2ccn(-c3nc4ccsc4c(=O)[nH]3)n2)C1` [Q-0389] the same measures were 20 nM and 5600 nM.
For `Cc1c(C(=O)N2CCN(C(=O)C34CC(C#N)(C3)C4)CC2)cnn1-c1nc2c(c(=O)[nH]1)CCC2` [Q-0632, 3-(4-(5-methyl-1-(4-oxo-4,5,6,7-tetrahydro-3H-cyclopenta[d]pyrimidin-2-yl)-1H-pyrazole-4-carbonyl)piperazine-1-carbonyl)bicyclo[1.1.1]pentane-1-carbonitrile], in that order: 4 nM and 7300 nM.
Regarding `Cc1c(C(=O)N2CCC(c3nc4cc(F)ccc4s3)CC2)cnn1-c1nc2c(c(=O)[nH]1)CCC2` [Q-0587], the IC50 in test [1] worked out at 10 nM; in test [2] (setting [3]), 21 nM.
For `Cc1c(C(=O)N(CCC(F)(F)F)CC(F)(F)F)cnn1-c1nc2c(c(=O)[nH]1)CCC2` [Q-0435], in that order: 20 nM and 1200 nM.
`Cc1cc(=O)[nH]c(-n2ncc(C(=O)N3CCc4ccc(S(=O)(=O)N5CCOCC5)cc4C3)c2C)n1` [Q-0327]: the IC50 is 7 nM in test [1] and 12000 nM in test [2] (setting [3]).
On to `Cc1c(C(=O)N2CCC3(CC2)COC3)cnn1-c1nn2cccc2c(=O)[nH]1` [Q-0793], for which the 50% inhibitory concentration (IC50) was determined as 3 nM in test [1] and 1000 nM in test [2] (setting [3]).
For the compound `Cc1c(C(=O)N2CCC(c3nc4ccccc4s3)CC2)cnn1-c1nc2sccc2c(=O)[nH]1` [Q-0574], the values for the IC50 in test [1] and in test [2] (setting [3]) were 6 nM and 47 nM, respectively.
For `CN(C(=O)OC(C)(C)C)[C@@H]1CCN(C(=O)c2cnn(-c3nn4cccc4c(=O)[nH]3)c2)C1` [Q-0730], in that order: 1 nM and 200 nM.
For `Cc1c(C(=O)N2CCN(c3ccc(F)cc3F)CC2)cnn1-c1nn2cccc2c(=O)[nH]1` [Q-0715] the same measures were 2 nM and 97 nM.
For `Cc1c(C(=O)N2CCC(c3c[nH]c4ccccc34)CC2)cnn1-c1nc2sccc2c(=O)[nH]1` [Q-0573], in that order: 3 nM and 35 nM.
